Series [1] can be described thus: Toxicity of AMPs (Table 3, method not described). The arrangement: unit not given here. Particulars: two values per AMP.
The next series has as its system Staph aureus. In words: Staph aureus growth in sterile media isolated 6 hours after M13 infection of EMG2 (FIG. 30). Format: cell-based, Staphylococcus aureus. Particulars: no phage control 1.6. Here is the method: The inventors isolated the media in which the antimicrobial agents were released. The inventors next infected a growing mid-log culture of EMG2 with the different wild-type and engineered M13 phage. At 6 hours post infection, the EMG2 cells were centrifuged at 13,000 g and filtered through a 0.2 um membrane to collect sterile media with the released AmP and enzyme. The media was replenished in nutrients by adding 5× concentrated LB solution. Mid-log Staph bacteria where then inoculated in the media at a concentration of 10^5 CFU/ml.
For example, the “no phage” or the “m13 mp 18” staph culture reach an OD of 0.8 within 4 hours whereas the “M13.pTRC.Omp.PonW3” media containing PonW3 (SEQ ID NO: 40) causes a growth delay by another 4 hours, the culture reaches the same OD of 0.8 only after 8 hours of growth. Finally, release of CHAP165 in the surrounding media due to phage reengineering limited staph growth to an OD level of 0.8 while compared to 1.6 for the no phage control and 1.2 for the wild M13mp18.

The next series has as its system S. aureus. The following applies: CHAP165, from ROSS 2009; cited from earlier work.
Series [2] has as its system E. coli strain that expresses capsular polysaccharide K. Description: Mixed culture of E. coli host strain and E. coli strain expressing capsular polysaccharide K. It is filed as cell-based, Escherichia coli. The source says:
The expression of the genomic payload of lytic peptides and proteins increases the utility of the engineered bacteriophage to treat heterologous infections.

Series [3] deals with antibiotic-resistant staphylococci. Particulars: cited from earlier work.
In another series the test system is Staphylococcus aureus. In words: Co-culture of E. coli with Staphylococcus aureus. Format: cell-based.

Peptide text beside a SMILES is read from it.

As for `CC[C@H](C)[C@H](NC(=O)[C@H](CC(C)C)NC(=O)[C@H](C)NC(=O)CNC(=O)[C@H](Cc1c[nH]c2ccccc12)NC(=O)[C@@H](N)Cc1ccccc1)C(=O)N[C@@H](CCCCN)C(=O)NCC(=O)N[C@@H](C)C(=O)N[C@@H](C)C(=O)N[C@@H](CCCCN)C(=O)N[C@@H](CC(C)C)C(=O)N[C@H](C(=O)N1CCC[C@H]1C(=O)N[C@@H](CO)C(=O)N[C@H](C(=O)N[C@H](C(=O)NCC(=O)N[C@@H](CC(C)C)C(=O)N[C@@H](Cc1ccccc1)C(=O)N[C@@H](CCCCN)C(=O)N[C@@H](CCCCN)C(=O)N[C@@H](CCCCN)C(=O)N[C@@H](CCC(N)=O)C(=O)O)C(C)C)C(C)C)[C@@H](C)CC` [J6084_H2, Ponericin W5] (H-FWGALIKGAAKLIPSVVGLFKKKQ-OH), in series [1], the Toxicity came to 32.
In series [1], `CC[C@H](C)[C@H](NC(=O)[C@H](CCCCN)NC(=O)[C@H](CC(C)C)NC(=O)[C@H](C)NC(=O)[C@H](CO)NC(=O)CNC(=O)[C@H](CC(C)C)NC(=O)[C@@H](N)Cc1c[nH]c2ccccc12)C(=O)NCC(=O)N[C@@H](C)C(=O)N[C@@H](CCCCN)C(=O)N[C@@H](CC(C)C)C(=O)N[C@@H](CC(C)C)C(=O)N1CCC[C@H]1C(=O)N[C@@H](CO)C(=O)N[C@H](C(=O)N[C@H](C(=O)NCC(=O)N[C@@H](CC(C)C)C(=O)N[C@@H](Cc1ccccc1)C(=O)N[C@@H](CCC(N)=O)C(=O)N[C@@H](CCCCN)C(=O)N[C@@H](CCCCN)C(=O)N[C@@H](CCCCN)C(=O)N[C@@H](CCCCN)C(=O)O)C(C)C)C(C)C` [J589_J5] (H-WLGSALKIGAKLLPSVVGLFQKKKK-OH) showed a Toxicity of 32.
On the same count and under the same terms, in the case of `CC(C)C[C@H](NC(=O)[C@H](CC(C)C)NC(=O)[C@H](Cc1ccccc1)NC(=O)[C@H](CC(C)C)NC(=O)[C@H](CC(C)C)NC(=O)[C@@H](N)CC(C)C)C(=O)N[C@@H](CCCCN)C(=O)N[C@@H](CCCCN)C(=O)N[C@@H](CCCNC(=N)N)C(=O)N[C@@H](CCCCN)C(=O)N[C@@H](CCCCN)C(=O)N[C@@H](CCCNC(=N)N)C(=O)N[C@@H](CCCCN)C(=O)N[C@@H](Cc1ccc(O)cc1)C(=O)O` [J589_D1] (H-LLLFLLKKRKKRKY-OH) it was 512.
The same measure, in the same setting: in the case of `CC[C@H](C)[C@H](NC(=O)[C@H](CCCCN)NC(=O)[C@H](CC(C)C)NC(=O)[C@H](C)NC(=O)[C@H](CO)NC(=O)CNC(=O)[C@H](CC(C)C)NC(=O)[C@@H](N)Cc1c[nH]c2ccccc12)C(=O)NCC(=O)N[C@@H](C)C(=O)N[C@@H](CCCCN)C(=O)N[C@@H](CC(C)C)C(=O)N[C@@H](CC(C)C)C(=O)N1CCC[C@H]1C(=O)N[C@@H](CO)C(=O)N[C@H](C(=O)N[C@H](C(=O)NCC(=O)N[C@@H](CC(C)C)C(=O)N[C@@H](Cc1ccccc1)C(=O)N[C@@H](CCCCN)C(=O)N[C@@H](CCCCN)C(=O)N[C@@H](CCCCN)C(=O)N[C@@H](CCCCN)C(=O)N[C@@H](CCC(N)=O)C(=O)O)C(C)C)C(C)C` [J6123_D7, Ponericin W1] (H-WLGSALKIGAKLLPSVVGLFKKKKQ-OH) it was 64.
The same measure, in the same setting: in the case of `CC[C@H](C)[C@H](NC(=O)CN)C(=O)N[C@@H](Cc1c[nH]c2ccccc12)C(=O)NCC(=O)N[C@H](C(=O)N[C@@H](CC(C)C)C(=O)N[C@@H](C)C(=O)N[C@@H](CCCCN)C(=O)N[C@H](C(=O)NCC(=O)N[C@H](C(=O)N[C@@H](CCCCN)C(=O)N[C@@H](C)C(=O)N[C@H](C(=O)N1CCC[C@H]1C(=O)N[C@@H](CCCNC(=N)N)C(=O)N[C@H](C(=O)N[C@H](C(=O)N[C@@H](CO)C(=O)N[C@@H](CCSC)C(=O)N[C@@H](CC(C)C)C(=O)N[C@@H](CCCCN)C(=O)N[C@@H](CCCCN)C(=O)N[C@@H](CCCCN)C(=O)N[C@@H](CCCCN)C(=O)N[C@@H](CCC(N)=O)C(=O)O)[C@@H](C)CC)C(C)C)C(C)C)[C@@H](C)CC)[C@@H](C)CC)[C@@H](C)O` [J589_K4, Ponericin W3] (H-GIWGTLAKIGIKAVPRVISMLKKKKQ-OH) it was 64; in that of `CC[C@H](C)[C@H](NC(=O)CNC(=O)[C@H](CCCNC(=N)N)NC(=O)[C@H](Cc1ccccc1)NC(=O)[C@@H](NC(=O)[C@H](Cc1c[nH]cn1)NC(=O)[C@H](Cc1c[nH]cn1)NC(=O)[C@H](Cc1ccccc1)NC(=O)[C@@H](N)Cc1ccccc1)[C@@H](C)CC)C(=O)N[C@H](C(=O)N[C@@H](Cc1c[nH]cn1)C(=O)N[C@H](C(=O)NCC(=O)N[C@@H](CCCCN)C(=O)N[C@H](C(=O)N[C@H](C(=O)N[C@@H](Cc1c[nH]cn1)C(=O)N[C@@H](CCCCN)C(=O)N[C@@H](CC(C)C)C(=O)N[C@H](C(=O)N[C@H](C(=O)NCC(=O)O)[C@@H](C)O)C(C)C)[C@@H](C)CC)[C@@H](C)O)C(C)C)C(C)C` [J589_H3] (H-FFHHIFRGIVHVGKTIHKLVTG-OH), 128.
As to `CC[C@H](C)[C@H](NC(=O)[C@H](CCCCN)NC(=O)[C@H](CCCCN)NC(=O)[C@H](Cc1ccccc1)NC(=O)[C@H](CC(C)C)NC(=O)[C@H](CCCCN)NC(=O)[C@H](Cc1c[nH]c2ccccc12)NC(=O)[C@@H](N)CCCCN)C(=O)N[C@@H](CC(C)C)C(=O)N[C@@H](CCCCN)C(=O)N[C@@H](Cc1ccccc1)C(=O)N[C@@H](CC(C)C)C(=O)N[C@@H](Cc1c[nH]cn1)C(=O)N[C@@H](CC(C)C)C(=O)N[C@@H](C)C(=O)N[C@@H](CCCCN)C(=O)N[C@@H](CCCCN)C(=O)N[C@@H](Cc1ccccc1)C(=O)O` [J6084_F10] (H-KWKLFKKILKFLHLAKKF-OH), the Toxicity in series [1] is reported as 32.
`CC[C@H](C)[C@H](NC(=O)[C@H](C)NC(=O)[C@H](CCCCN)NC(=O)CNC(=O)[C@H](C)NC(=O)[C@H](Cc1c[nH]cn1)NC(=O)[C@@H](NC(=O)[C@H](C)NC(=O)CNC(=O)[C@H](CCCCN)NC(=O)[C@@H](NC(=O)[C@H](CC(C)C)NC(=O)[C@H](Cc1c[nH]c2ccccc12)NC(=O)CNC(=O)[C@H](Cc1ccccc1)NC(=O)[C@@H](N)Cc1ccccc1)[C@@H](C)CC)[C@@H](C)CC)C(=O)N[C@@H](Cc1c[nH]cn1)C(=O)NCC(=O)N[C@@H](CC(C)C)C(=O)N[C@H](C(=O)N[C@@H](Cc1c[nH]cn1)C(=O)N[C@@H](CCCNC(=N)N)C(=O)N[C@@H](CCCNC(=N)N)C(=O)N[C@@H](CCCNC(=N)N)C(=O)N[C@@H](Cc1c[nH]cn1)C(=O)O)[C@@H](C)CC` [J589_J6] (H-FFGWLIKGAIHAGKAIHGLIHRRRH-OH) returned a Toxicity in series [1] of 16.
On the same count and under the same terms, under `CC[C@H](C)[C@H](NC(=O)[C@H](C)NC(=O)[C@@H]1CCCN1C(=O)CNC(=O)[C@H](C)NC(=O)[C@H](CCCCN)NC(=O)[C@@H](NC(=O)[C@H](CC(C)C)NC(=O)CNC(=O)[C@H](CC(=O)O)NC(=O)[C@H](CCCNC(=N)N)NC(=O)[C@@H](NC(=O)[C@H](CC(N)=O)NC(=O)[C@H](CCC(N)=O)NC(=O)CNC(=O)[C@@H](NC(=O)[C@H](CCCNC(=N)N)NC(=O)[C@H](CCC(=O)O)NC(=O)[C@@H](NC(=O)[C@H](CCCCN)NC(=O)[C@H](CCCCN)NC(=O)[C@H](Cc1ccccc1)NC(=O)[C@H](Cc1ccccc1)NC(=O)[C@H](CCCCN)NC(=O)[C@H](Cc1c[nH]c2ccccc12)NC(=O)[C@@H](N)CCCNC(=N)N)[C@@H](C)CC)C(C)C)C(C)C)[C@@H](C)CC)C(=O)N[C@@H](CCC(N)=O)C(=O)N[C@H](C(=O)N[C@@H](CC(C)C)C(=O)NCC(=O)N[C@@H](C)C(=O)N[C@@H](C)C(=O)N[C@@H](CCCCN)C(=O)N[C@@H](C)C(=O)N[C@@H](CC(C)C)C(=O)O)C(C)C` [J6090_C11] (H-RWKFFKKIERVGQNVRDGLIKAGPAIQVLGAAKAL-OH) stands 256.

B1: CHAP165 (protein)
chain: AKTQAEINKRLDAYAKGTVDSPYRVKKATSYDPSFGVMEAGAIDADGYYHAQCQDLITDYVLWLTDNKVRTWGNAKDQIKQSYGTGFKIHENKPSTVPKKGWIAVFTSGSYEQWGHIGIVYDGGNTSTFTILEQNWNGYANKKPTKRVDNYYGLTHFIEIPVKA
In the case of B1, in the series on Staph aureus, the “OD level to which staph growth is limited” value is reported as 0.8. Further, in the series on S. aureus, the “MIC SA” value is around 0.3 µg/mL. Further, the “sterilization of the heterogeneous E. coli culture” value in series [2] is reported as “sterilize the heterogeneous E. coli culture completely”. In series [2] (lysK165 expressed from engineered bacteriophage), the “lysis of the E. coli strain that expresses capsular polysaccharide K” value is on record as “able to lyse”. For the same molecule, the “lytic activity compared with the natural LysK enzyme” value in series [3] was “twice stronger lytic activity”. The “lysis of the staphylococcal population” value with Staphylococcus aureus is recorded as “able to complete lyse”.
